Experimental data published in patent EP0113632A1, “Process for the preparation of halogen methylates of levallorphane, and peripheral narcotic antagonist pharmaceutical compositions containing them” (SANOFI S.A., priority 1982, dated 1984).

Key:
[1] = system: effet analgésique de la morphine; assay: Hot plate test: antagonism of the analgesic effect of morphine; assay type: in vivo, souris; settings: for ED50: Mus musculus, sc, read-out: Antagonisme à l'effet analgésique DI50a; for ED50 / Antagonisme à l'effet analgésique DI50a: female mice, s.c. 5 min before morphine 24 mg/kg s.c., hot plate 30 min after morphine, dose inhibiting the effect by 50 %, extrapolated from log dose-response regression, limits in parentheses; for DI50a/DI50c: ratio of DI50 for the analgesic effect (hot plate) to DI50 for the constipating effect (charcoal meal)
Protocol: L'antagonisme à l'effet analgésique de la morphine a été évalué selon le test classique pour l'analgésie de la plaque chauffante (Eddy et Leibach, J. Pharmacol. 1953, 107, 385, modifié par Janseen et Jagenau, J. Pharm. Pharmacol. 1957, 9, 381-400). Ce test est très sensible pour l'action des antogonistes des opiacés.
On utilise des souris femelles de 18 à 22 g. Les substances sont administrées en solution physiologique (20 ml/kg) par voie sous-cutanée 5 minutes avant l'administration de la morphine (24 mg/kg s.c.). Trente minutes après la morphine, on place les animaux sur la plaque chauffante et l'on évalue le temps de réaction des animaux qui présentent la réaction nocicéptive (léchage des pattes).
(§1) L'activité des substances à activité antagoniste périphérique des narcotiques est évaluée sur la base de l'inhibition pour cent de l'effet constipant et de l'effet analgésique de la morphine. La dose qui inhibe de 50 % lesdits effets (DI50c pour l'effet constipant et […] pour l'effet analgésique) a été extrapolée de la droite de régression log dose-réponse en appliquant l'analyse de la variance par régression linéaire.

[2] = system: effet constipant de la morphine; assay: Charcoal meal intestinal transit test (Green, modified): antagonism of the constipating effect of morphine; assay type: in vivo, souris; settings: for ED50: Mus musculus, sc, read-out: Antagonisme à l'effet constipant DI50c; for ED50 / Antagonisme à l'effet constipant DI50c: female mice fasted 20 h, s.c. 5 min before morphine 12 mg/kg s.c. and charcoal meal, sacrifice after 30 min, dose inhibiting the effect by 50 %, extrapolated from log dose-response regression, limits in parentheses
Protocol: L'antagonisme à l'effet constipant de la morphine des halomèthylates de lévallorphan de la présente invention a été évalué selon le test décrit par A.F. Green (Pr. J. Pharmacol. Chemother. 1959, 14, 26), opportunément modifié.
On utilise trois groupes de souris femelles de 20 g environ à jeun depuis 20 heures. A un groupe témoin, on administre par voie orale un repas constitué par 0,2 ml d'un mélange de gomme arabique 5 % (6 ml), farine (2 g) et charbon (1 g). Au deuxième groupe on administre par la voie sous-cutanée 12 mg/kg de morphine et, immédiatement après, le repas au charbon ci-dessus. Le troisième groupe est traité par l'antagoniste sous examen par voie sous-cutanée, puis, après 5 minutes, par 12 mg/kg de morphine par voie sous-cutanée et, tout de suite après, par le repas au charbon. Après trente minutes, les animaux sont sacrifiés pour l'évaluation de la portion intestinale parcourue par le charbon, exprimée en pour cent de la longueur totale de l'intestin grèle.
as §1

Row | SMILES | ED50 [1] [mg/kg] | DI50a/DI50c [1] | ED50 [2] [mg/kg] | Antagonisme à l'effet analgésique DI50a [1] | activité antagoniste, périphérique ou centrale ([2]; conclusion in words, covers both the constipation and the analgesia test) | Antagonisme à l'effet constipant DI50c [2] | activité par rapport à celle du bromoallylate de lévallorphan ([2]; test of antagonism of the constipating effect of morphine, fold higher activity) [fois]
1 | C=CC[N+]1(C)CCC23c4c5ccc(O)c4OC2C(O)C=CC3C1C5 (single isomer, unassigned) [bromométhylate de nalorphine] | 8.6 | 2,32 | 3.7 |  |  |  | 
2 | C=CC[N+]1(C)CC[C@]23CCCC[C@H]2[C@H]1Cc1ccc(O)cc13 (single isomer, unassigned) [iodoallylate de lévorphanol] |  |  |  | 50 mg/kg | inactif | 50 mg/kg | 
3 | C=CC[N+]1(C)CC[C@]23CCCC[C@H]2[C@H]1Cc1ccc(O)cc13 (single isomer, unassigned) [iodométhylate de lévallorphan] | 50 | 6,7 |  |  |  | 7,6 mg/kg (4,5 - 13,0) | > 2
4 | C=CC[N+]1(CC=C)CC[C@]23CCCC[C@H]2[C@H]1Cc1ccc(O)cc13 [bromoallylate de lévallorphan] | 15.2 | 0,97 | 15.6 |  |  |  | 
5 | C=CCN1CC[C@]23c4c5ccc(O)c4O[C@H]2C(=O)CC[C@@]3(O)[C@H]1C5 [naloxone, N-allyl-noroxymorphone] | 0.06 | 0,08 | 0.8 |  |  |  | 
6 | C=CC[N+]1(C)CCC23c4c5ccc(O)c4OC2C(=O)CCC3(O)C1C5.COS(=O)(=O)[O-] (stereo not drawn) [sulfométhylate de naloxone] |  |  |  | 1,6 mg/kg (0,7 - 3,6) |  | 5,8 mg/kg (2,9 - 11,5) | 
